Test results as given in US20250129088A1, “CEREBLON E3 UBIQUITIN LIGASE INHIBITOR” (Gan & Lee Pharmaceuticals Co., Ltd., priority 2022, published 2025).

Assays:
Format in all cases: cell-based
[1] = system: MV-4-11 cells; test: MV-4-11 cell proliferation inhibition, CCK-8; details: Homo sapiens, MV4-11, 96 h, MV-4-11, 4 days
Description: The complete medium required for MV-4-11 cells is IMDM (ATCC, Product number: 30-2005) basal medium containing 10% fetal bovine serum. MV-4-11 cells were seeded in a 96-well plate at a density of 7,500 cells/well, and different concentrations of the compound of the present invention and positive control samples Alisertib (source: Bide Pharmaceuticals), Palbociclib (source: Bide Pharmaceuticals), Ibrutinib (source Bide Pharmaceuticals) treated cells. The cells were incubated in a 37° C., 5% CO2 cell incubator for 4 days. Cell viability was detected using the CCK-8 kit (Beyotime, Product number: C0040) according to the manufacturer's instructions. According to the inhibition rate, GraphPad Prism software was used to calculate the IC50 value of each compound for 4 days, and the results are shown in Table 6-8.

[2] = system: K562 cells; test: K562 cell proliferation inhibition, CCK-8; details: Homo sapiens, 96 h, K562, 4 days
Description: The complete medium required for K562 cells is IMDM (ATCC, Product number: 30-2005) basal medium containing 10% fetal bovine serum. K562 cells were seeded in a 96-well plate at a density of 7,500 cells/well, and different concentrations of the compound of the present invention and positive control samples Alisertib (source: Bide Pharmaceuticals) and dBET6 (source: Bide Pharmaceuticals) were prepared to treat the cells. The cells were incubated at a 37° C., 5% CO2 cell culture incubator for 4 days.
Cell viability was detected using the CCK-8 kit (Beyotime, Product number: C0040) according to the manufacturer's instructions. According to the inhibition rate, GraphPad Prism software was used to calculate the IC50 value of each compound for 4 days, and the results are shown in Table 11-12.

[3] = system: MOLM-13 cells; test: MOLM-13 cell proliferation inhibition, CCK-8; details: Homo sapiens, 96 h, MOLM-13, 4 days
Description: The complete medium required for MOLM-13 cells is 1640 (ATCC, Product number: 30-2001) basal medium containing 20% fetal bovine serum. MOLM-13 cells were seeded in a 96-well plate at a density of 7,500 cells/well, and different concentrations of the compounds of the present invention were prepared to treat the cells at the same time. The cells were incubated in a 37° C., 5% CO2 cell culture incubator for 4 days. Cell viability was detected using the CCK-8 kit (Beyotime, Product number: C0040) according to the manufacturer's instructions. According to the inhibition rate, GraphPad Prism software was used to calculate the IC50 value of each compound for 4 days, and the results are shown in Table 9-10.

[4] = Table 6, positive control Alisertib
[5] = Table 11, positive control Alisertib
[6] = Table 12, positive control dBET6
[7] = Table 7, positive control Palbociclib

IC50 [1, 4]	IC50 [2, 5]	IC50 [1, 7]	IC50 ([3]; Table 10)	SMILES	further results
–	–	12700 nM	12400 nM	CC(=O)c1c(C)c2cnc(Nc3ccc(N4CCN(CCOCCC(=O)N5CC6(CCc7cc8c(cc7O6)C(=O)N(C6CCC(=O)NC6=O)C8=O)C5)CC4)cn3)nc2n(C2CCCC2)c1=O (stereo not drawn) [PROTAC 39, 1-(3-(2-(4-(6-((6-acetyl-8-cyclopentyl-5-methyl-7-oxo-7,8-dihydropyridone[2,3-d]pyrimidin-2-yl)amino)pyridin-3-yl)piperazin-1-yl)ethoxy)propionyl)-7′-(2,6-dioxopiperidin-3-yl)-3′,4′-dihydro-6′H-spiro[azetidine-3,2′-pyrano[2,3-f]isoindole]-6′,8′(7′ H)-dione]	–
–	–	–	4870 nM	CC(=O)c1c(C)c2cnc(Nc3ccc(N4CCN(CCOCCC(=O)N5CCC6(CC5)COc5cc7c(cc5C6)C(=O)N(C5CCC(=O)NC5=O)C7=O)CC4)cn3)nc2n(C2CCCC2)c1=O (stereo not drawn) [PROTAC 40, 1-(3-(2-(4-(6-((6-acetyl-8-cyclopentyl-5-methyl-7-oxo-7,8-dihydropyridone[2,3-d]pyrimidin-2-yl)amino)pyridin-3-yl)piperazin-1-yl)ethoxy)propionyl)-7′-(2,6-dioxopiperidin-3-yl)-2′H-spiro[piperidine-4,3′-pyrano[2,3-f]isoindole]-6′,8′(4′H,7′H)-dione]	–
–	–	2160 nM	2190 nM	CC(=O)c1c(C)c2cnc(Nc3ccc(N4CCN(CCOCCC(=O)N5CCC6(CC5)COc5cc7c(cc56)C(=O)N(C5CCC(=O)NC5=O)C7=O)CC4)cn3)nc2n(C2CCCC2)c1=O (stereo not drawn) [PROTAC 41, 1′-(3-(2-(4-(6-((6-acetyl-8-cyclopentyl-5-methyl-7-oxo-7,8-dihydropyridone[2,3-d]pyrimidin-2-yl)amino)pyridin-3-yl)piperazin-1-yl)ethoxy)propionyl)-6-(2,6-dioxopiperidin-3-yl)-6-hydro-2H,5H-spiro[furo[2,3-f]isoindole-3,4′-piperidine]-5,7-dione]	–
–	–	940 nM	830 nM	CC(=O)c1c(C)c2cnc(Nc3ccc(N4CCN(CCOCCC(=O)N5CCC6(CCc7cc8c(cc7O6)C(=O)N(C6CCC(=O)NC6=O)C8)CC5)CC4)cn3)nc2n(C2CCCC2)c1=O (stereo not drawn) [PROTAC 42, 3-(1-(3-(2-(4-(6-((6-acetyl-8-cyclopentyl-5-methyl-7-oxo-7,8-dihydropyridone[2,3-d]pyrimidin-2-yl)amino)pyridin-3-yl)piperazin-1-yl)ethoxy)propionyl)-8′-oxo-3′,4′,6′,8′-tetrahydro-7′H-spiro[piperidine-4,2′-pyrano[2,3-f]isoindole]-7′-yl)piperidine-2,6-dione]	–
–	–	2490 nM	1870 nM	CC(=O)c1c(C)c2cnc(Nc3ccc(N4CCN(CCOCCC(=O)N5CCC6(CCc7cc8c(cc7O6)CN(C6CCC(=O)NC6=O)C8=O)CC5)CC4)cn3)nc2n(C2CCCC2)c1=O (stereo not drawn) [PROTAC 43, 3-(1-(3-(2-(4-(6-((6-acetyl-8-cyclopentyl-5-methyl-7-oxo-7,8-dihydropyridone[2,3-d]pyrimidin-2-yl)amino)pyridin-3-yl)piperazin-1-yl)ethoxy)propionyl)-6′-oxo-6′,8′-dihydro-3′H,7′H-spiro[piperidine-4,2′-[1,4]dioxino[2,3-f]isoindole]-7′-yl)piperidine-2,6-dione]	–
–	–	3310 nM	1310 nM	CC(=O)c1c(C)c2cnc(Nc3ccc(N4CCN(CCOCCC(=O)N5CC6(CCc7cc8c(cc7O6)C(=O)N(C6CCC(=O)NC6=O)C8)C5)CC4)cn3)nc2n(C2CCCC2)c1=O (stereo not drawn) [PROTAC 44, 3-(1-(3-(2-(4-(6-((6-acetyl-8-cyclopentyl-5-methyl-7-oxo-7,8-dihydropyridone[2,3-d]pyrimidin-2-yl)amino)pyridin-3-yl)piperazin-1-yl)ethoxy)propionyl)-8′-oxo-3′,4′,6′,8′-tetrahydro-7′H-spiro[azetidine-3,2′-pyrano[2,3-f]isoindole]-7′-yl)piperidine-2,6-dione]	–
–	–	4250 nM	4340 nM	CC(=O)c1c(C)c2cnc(Nc3ccc(N4CCN(CCOCCC(=O)N5CC6(CCc7cc8c(cc7O6)CN(C6CCC(=O)NC6=O)C8=O)C5)CC4)cn3)nc2n(C2CCCC2)c1=O (stereo not drawn) [PROTAC 45, 3-(1-(3-(2-(4-(6-((6-acetyl-8-cyclopentyl-5-methyl-7-oxo-7,8-dihydropyridone[2,3-d]pyrimidin-2-yl)amino)pyridin-3-yl)piperazin-1-yl)ethoxy)propionyl)-6′-oxo-3′,4′,6′,8′-tetrahydro-7′H-spiro[azetidine-3,2′-pyrano[2,3-f]isoindole]-7′-yl)piperidine-2,6-dione]	–

Further lines, the compound ahead of its results:

SMILES	IC50 [1, 4]	IC50 [2, 5]	IC50 [1, 7]	IC50 ([3]; Table 10)	further results
COc1cc(Nc2ncc3c(n2)-c2ccc(Cl)cc2C(c2c(F)cccc2OC)=NC3)ccc1C(=O)O [Alisertib, reference compound]	26 nM	3770 nM	–	–	–
COc1cc(Nc2ncc3c(n2)-c2ccc(Cl)cc2C(c2c(F)cccc2OC)=NC3)ccc1C(=O)N1CCC2(CCc3cc4c(cc3O2)CN(C2CCC(=O)NC2=O)C4=O)CC1 (stereo not drawn) [PROTAC 1, 3-(1-(4-((9-chloro-7-(2-fluoro-6-methoxyphenyl)-5H-benzo[c]pyrimido[4,5-e]azepine-2-yl)amino)-2-methoxybenzoyl)-6′-oxo-3′,4′,6′,8′-tetrahydro-7′H-spiro[piperidine-4,2′-pyrano[2,3-f]isoindol]-7′-yl)piperidine-2,6-dione]	120 nM	150 nM	–	–	–
COc1cc(Nc2ncc3c(n2)-c2ccc(Cl)cc2C(c2c(F)cccc2OC)=NC3)ccc1C(=O)N1CC2(CCc3cc4c(cc3O2)CN(C2CCC(=O)NC2=O)C4=O)C1 (stereo not drawn) [PROTAC 3, 3-(1-(4-((9-chloro-7-(2-fluoro-6-methoxyphenyl)-5H-benzo[c]pyrimido[4,5-e]azepine-2-yl)amino)-2-methoxybenzoyl)-6′-oxo-3′,4′,6′,8′-tetrahydro-7′H-spiro[azetidine-3,2′-pyrano[2,3-f]isoindole]-7′-yl)piperidine-2,6-dione]	77 nM	410 nM	–	–	–
COc1cc(Nc2ncc3c(n2)-c2ccc(Cl)cc2C(c2c(F)cccc2OC)=NC3)ccc1C(=O)N1CC2(CCc3cc4c(cc3O2)C(=O)N(C2CCC(=O)NC2=O)C4)C1 (stereo not drawn) [PROTAC 4, 3-(1-(4-((9-chloro-7-(2-fluoro-6-methoxyphenyl)-5H-benzo[c]pyrimido[4,5-e]azepine-2-yl)amino)-2-methoxybenzoyl)-8′-oxo-3′,4′,6′,8′-tetrahydro-7′H-spiro[azetidine-3,2′-pyrano[2,3-f]isoindole]-7′-yl)piperidine-2,6-dione]	25 nM	220 nM	–	–	–
COc1cc(Nc2ncc3c(n2)-c2ccc(Cl)cc2C(c2c(F)cccc2OC)=NC3)ccc1C(=O)NCCOCCC(=O)N1CCC2(CC1)COc1cc3c(cc12)C(=O)N(C1CCC(=O)NC1=O)C3=O (stereo not drawn) [PROTAC 7, 4-((9-chloro-7-(2-fluoro-6-methoxyphenyl)-5H-benzo[c]pyrimido[4,5-e]azepine-2-yl)amino)-N-(2-(3-(6-(2,6-dioxopiperidin-3-yl)-5,7-dioxo-6,7-dihydro-2H,5H-spiro[furan [2,3-f]isoindole-3,4′-piperidin]-1′-yl)-3-oxopropoxy)ethyl)-2-methoxybenzamide]	360 nM	1470 nM	–	–	–
Cc1nc(Nc2ncc(C(=O)Nc3c(C)cccc3Cl)s2)cc(N2CCN(CCOCCC(=O)N3CCC4(CCc5cc6c(cc5O4)C(=O)N(C4CCC(=O)NC4=O)C6=O)CC3)CC2)n1 (stereo not drawn) [PROTAC 9, N-(2-chloro-6-methylphenyl)-2-((6-(4-(2-(3-(7′-(2,6-dioxopiperidin-3-yl)-6′,8′-dioxo-4′,6′,7′,8′-tetrahydro-3′H-spiro[piperidine-4,2′-pyrano[2,3-f]isoindol]-1-yl)-3-oxopropoxy)ethyl)piperazin-1-yl)-2-methylpyrimidin-4-yl)amino)thiazole-5-carboxamide]	–	–	–	–	IC50 ([3]; Table 9): 1110 nM; IC50 [2, 6]: 16 nM
Cc1nc(Nc2ncc(C(=O)Nc3c(C)cccc3Cl)s2)cc(N2CCN(CCOCCC(=O)N3CCC4(CC3)COc3cc5c(cc3C4)C(=O)N(C3CCC(=O)NC3=O)C5=O)CC2)n1 (stereo not drawn) [PROTAC 10, N-(2-chloro-6-methylphenyl)-2-((6-(4-(2-(3-(7′-(2,6-dioxopiperidin-3-yl)-6′,8′-dioxo-4′,6′,7′,8′-tetrahydro-2′H-spiro[piperidine-4,3′-pyrano[2,3-f]isoindole]-1-yl)-3-oxopropoxy)ethyl)piperazin-1-yl)-2-methylpyrimidin-4-yl)amino)thiazole-5-carboxamide]	–	–	–	–	IC50 ([3]; Table 9): 1050 nM; IC50 [2, 6]: 17 nM
